Laboratory results from patent US12528812B2 (Genentech, Inc., priority 2020, dated 2026).
Where two headings read alike, the source gives them in different places.

Assays:
[1] = tested on: EPO-stimulated P-STAT5 in TF-1 human erythroleukemia cells; test: P-STAT5 TF-1 + EPO assay (JAK2 pathway); type: cell-based; settings: EPO stimulation, read-out: Cellular JAK2 PSTAT5 TF-1 + EPO
Procedure: (§1) TF-1 human erythroleukemia cells (ATCC′; Manassas, VA; Catalog No. CRL-2003™) were grown in Roswell Park Memorial Institute (RPMI) medium supplemented with 10% heat-inactivated fetal bovine serum (FBS), 2 ng/mL granulocyte-macrophage colony-stimulating factor, 1× non-essential amino acids (NEAA), and 1 mM sodium pyruvate. The day before the assay, the cultures were transferred to Opti-MEM™, 1×NEAA, 1 mM sodium pyruvate, and 0.5% charcoal-stripped FBS (starve medium). Inhibitor stock solutions (5 mM in DMSO) were serially diluted 1:2 in DMSO to generate a 10-point concentration titration (at 500× test concentration), which was further diluted by a 50-fold dilution in Assay Medium (RPMI containing 1×NEAA and 1 mM sodium pyruvate) to generate a 10× concentration titration (in 2% DMSO). The cells (300,000 cells/well in 35 μL of Assay Medium) were seeded in 384-well Greiner plates. Diluted inhibitor at 10× concentration (5 μL) was added to the cells and the plates were incubated for 30 minutes at 37° C. in a humidified incubator. Cells were stimulated with the human recombinant cytokine at the respective EC90 concentrations, as previously determined for each individual lot. For the phosphorylated signal transducer and activator of transcription 6 (P-STAT6) TF-1+Interleukin-13 (IL-13) assay, 10 μL of 250 ng/mL IL-13 (R&D Systems; Minneapolis, MN) was added to the cells, which were then incubated for 10 minutes at 37° C. For the P-STAT5 TF-1+Erythropoietin (EPO) assay, 10 μL of 110 IU/mL EPO (Gibco Life Technologies, Catalog No. PHC2054) was added to the cells, which were then incubated for […] at 37° C. For both assays, the incubation was followed by addition to the cells of 5 μL of ice-cold 10× cell lysis buffer (Cell Signaling Technologies; Danvers, MA; Catalog No. 9803S) containing 1 mM phenylmethylsulfonyl fluoride (PMSF). Assay plates were frozen at −80° C. for a minimum of 1 hour. In the IL-13 assay, P-STAT6 was measured by coating goat anti-rabbit (GAR) plates (Meso Scale Discovery [MSD]; Rockville, MD; Catalog No. MSD L21RA-1) with rabbit anti-human total STAT6 antibody (Cell Signaling Technologies; Catalog No. 9362S), incubating the cell lysates in the coated plates overnight at 4° C., and then detecting with mouse anti-P-STAT6 (Tyr641) Clone 16E12 antibody (MilliporeSigma; Burlington, MA; Catalog No. 05-590, custom labeled by MSD with SULFO-tag) using standard MSD plate processing, washing, and detection protocols. In the EPO assay, P-STAT5 was detected using the phospho-STAT5a,b Whole Cell Lysate Kit (MSD; Catalog No. K150IGD-1). The electrochemiluminescence (ECL) signal of wells was read on the MESO SECTOR 5600 (MSD) reader.
(§2) Data analysis was performed by subtracting the negative control (cytokine stimulated and 20 μM control inhibitor-treated cells) mean ECL value from the ECL value of all wells, determining percent of control for test compound well ECL values relative to the positive control (cytokine stimulated and DMSO-treated cells) mean ECL value, and determining the IC50 for test compounds with a four-parameter logistic fit model as shown in Equation 4.

[2] = molecular target: T1, recombinant human JAK1 kinase domain protein (Residues 854-1154) (Homo sapiens, UniProt P23458); test: JAK1 biochemical assay (LabChip mobility shift, Ki); settings: read-out: Biochem JAK1 Ki
T1 construct: human JAK1 kinase domain protein (Residues 854-1154); purchased Proteros Biostructures GmbH (Martinsried, Germany); host or cells: insect cells

[3] = tested on: IL-13-stimulated P-STAT6 in TF-1 human erythroleukemia cells; test: P-STAT6 TF-1 + IL-13 assay (JAK1 pathway); type: cell-based; settings: IL13 stimulation, read-out: Cellular JAK1 PSTAT6 TF-1 + IL13
Procedure: as §1, §2

[4] = tested on: IL-13-stimulated STAT6 phosphorylation in human lung bronchial epithelial BEAS-2B cell line; test: P-STAT6 BEAS-2B + IL-13 cell assay; type: cell-based; settings: BEAS2B cells, IL13 stimulation, read-out: Cellular JAK1 PSTAT6 BEAS2B + IL13
Method in brief: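 BEAS-2B cells grown 48 h at 37 °C, pre-treated 1 h with compound (10-point 1:2 dilution curve), then stimulated 15 min with human recombinant IL-13 (250 ng/mL stock). Lysate P-STAT6 (Tyr641) read by MSD sandwich ELISA with total-STAT6 capture; IC50 from four-parameter logistic fit of control-normalised data.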

[5] = molecular target: Recombinant human JAK2 kinase domain protein (Residues 812-1132) (Homo sapiens, UniProt O60674); test: JAK2 biochemical assay (LabChip mobility shift, Ki); settings: Biochem JAK2 Ki
Recombinant human JAK2 kinase domain protein (Residues 812-1132), sequence (O60674 812-1132): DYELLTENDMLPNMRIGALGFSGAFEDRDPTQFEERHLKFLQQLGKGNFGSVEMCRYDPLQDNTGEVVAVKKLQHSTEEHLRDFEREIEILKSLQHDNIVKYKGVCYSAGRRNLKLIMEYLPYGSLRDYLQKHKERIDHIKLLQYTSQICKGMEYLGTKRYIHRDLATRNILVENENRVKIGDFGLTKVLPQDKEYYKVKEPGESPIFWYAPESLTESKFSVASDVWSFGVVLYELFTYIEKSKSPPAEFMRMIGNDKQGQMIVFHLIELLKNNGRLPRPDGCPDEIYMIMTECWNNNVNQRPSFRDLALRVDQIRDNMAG

T1 sequence (P23458 854-1154): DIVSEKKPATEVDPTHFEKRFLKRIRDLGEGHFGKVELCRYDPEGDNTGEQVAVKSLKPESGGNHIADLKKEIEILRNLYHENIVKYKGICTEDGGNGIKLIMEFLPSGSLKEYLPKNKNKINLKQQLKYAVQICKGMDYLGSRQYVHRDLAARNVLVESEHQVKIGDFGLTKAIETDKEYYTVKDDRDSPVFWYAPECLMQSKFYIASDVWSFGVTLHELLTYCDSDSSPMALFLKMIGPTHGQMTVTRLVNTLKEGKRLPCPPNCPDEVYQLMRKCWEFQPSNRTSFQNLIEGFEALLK

| IC50 ([1]; Homo sapiens, TF-1, TF-1 cells) | Ki [2] | IC50 ([3]; Homo sapiens, TF-1, TF-1 cells) | Ki [5] | IC50 ([1]; TF-1 cells) | IC50 ([3]; TF-1 cells) | Compound | IC50 [4] | IC50 ([4]; Homo sapiens, BEAS-2B) |
| --- | --- | --- | --- | --- | --- | --- | --- | --- |
| 33 nM | 1.6 nM | 12 nM | 1.2 nM |  |  | CN1CCC(n2cc(Oc3ccc(OC(F)F)c(-c4nn(C)cc4NC(=O)c4cnn5cccnc45)c3)cn2)C1 (racemic) [Example 141, N-[3-[2-(difluoromethoxy)-5-[1-[rac-(3R)-1-methylpyrrolidin-3-yl]pyrazol-4-yl]oxy-phenyl]-1-methyl-pyrazol-4-yl]pyrazolo[1,5-a]pyrimidine-3-carboxamide] | 46 nM |  |
| 58 nM | 0.76 nM | 22 nM | 0.39 nM |  |  | CN1CCC(n2cc(Oc3ccc(OC(F)F)c(-c4nn(C)cc4NC(=O)c4cnn5cccnc45)c3)cn2)C(O)C1 (stereo not shown) [Example 186, N-[3-[2-(difluoromethoxy)-5-[1-(3-hydroxy-1-methyl-4-piperidyl)pyrazol-4-yl]oxy-phenyl]-1-methyl-pyrazol-4-yl]pyrazolo[1,5-a]pyrimidine-3-carboxamide] |  | 48 nM |
| 9.7 nM | 0.38 nM | 4.1 nM | 0.26 nM |  |  | Cn1cc(NC(=O)c2cnn3cccnc23)c(-c2cc(Oc3cnn(S(C)(=O)=O)c3)ccc2OC(F)F)n1 [Example 195, N-[3-[2-(difluoromethoxy)-5-(1-methylsulfonylpyrazol-4-yl)oxy-phenyl]-1-methyl-pyrazol-4-yl]pyrazolo[1,5-a]pyrimidine-3-carboxamide] |  | 13 nM |
| 11 nM | 0.32 nM | 3.6 nM | 0.19 nM |  |  | Cn1cc(NC(=O)c2cnn3cccnc23)c(-c2cc(Oc3cccnc3)ccc2OC(F)F)n1 [Example 2, N-[3-[2-(difluoromethoxy)-5-(3-pyridyloxy)phenyl]-1-methyl-pyrazol-4-yl]pyrazolo[1,5-a]pyrimidine-3-carboxamide] |  | 20 nM |
| 160 nM | 0.29 nM | 76 nM | 0.23 nM |  |  | Cn1cc(NC(=O)c2cnn3cccnc23)c(-c2cc(Oc3cnn([C@@H]4CNCC[C@H]4O)c3)ccc2OC(F)F)n1 (stereo in doubt) [Example 181, N-[3-[2-(difluoromethoxy)-5-[1-[rac-(3R,4R)-4-hydroxy-3-piperidyl]pyrazol-4-yl]oxy-phenyl]-1-methyl-pyrazol-4-yl]pyrazolo[1,5-a]pyrimidine-3-carboxamide] |  | 60 nM |
|  | 0.35 nM |  | 0.24 nM | 38 nM | 34 nM | CN1CCC(n2cc(Oc3ccc(OC(F)F)c(-c4nn(C)cc4NC(=O)c4cnn5cccnc45)c3)cn2)C(O)C1 (stereo not shown) [Example 187, N-[3-[2-(difluoromethoxy)-5-[1-(3-hydroxy-1-methyl-4-piperidyl)pyrazol-4-yl]oxy-phenyl]-1-methyl-pyrazol-4-yl]pyrazolo[1,5-a]pyrimidine-3-carboxamide] | 44 nM |  |
| 15 nM | 0.58 nM | 8.4 nM | 0.6 nM |  |  | Cn1cc(NC(=O)c2cnn3cccnc23)c(-c2cc(Oc3cccc(C4CNCCO4)c3)ccc2OC(F)F)n1 (stereo not shown) [Example 82, N-[3-[2-(difluoromethoxy)-5-(3-morpholin-2-ylphenoxy)phenyl]-1-methyl-pyrazol-4-yl]pyrazolo[1,5-a]pyrimidine-3-carboxamide] |  | 51 nM |
| 130 nM | 1.4 nM | 180 nM | 1 nM |  |  | CN1CC(O)(c2cccc(Oc3ccc(OC(F)F)c(-c4nn(C)cc4NC(=O)c4cnn5cccnc45)c3)n2)C1 [Example 190, N-[3-[2-(difluoromethoxy)-5-[[6-(3-hydroxy-l-methyl-azetidin-3-yl)-2-pyridyl]oxy]phenyl]-1-methyl-pyrazol-4-yl]pyrazolo[1,5-a]pyrimidine-3-carboxamide] |  | 38 nM |
